Reference: ChEMBL document CHEMBL1201862, “PubChem BioAssay data set” (2004)
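Step 1: Grow cells in 96-well plates. Step 2: Expose to compound for 48 hours at 5 concentrations. Step 3: Interpolate endpoints linearly; if unreached, use highest concentration. The concentration for 50% growth inhibition is given as GI50.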 Calls of active or inactive are those of the source. Rule as the data show it: active = GI50 up to about 1.1 µM and inactive = higher.

Columns and labels:
Experiment in all cases: NCI tumour cell line growth inhibition, 48 h
[1] = test system: MDA-N
[2] = test system: NCI-H23
[3] = test system: UACC-62
[4] = test system: UO-31
[5] = test system: DU-145
[6] = test system: SK-OV-3
[7] = test system: OVCAR-3
[8] = test system: NCI-H226
[9] = test system: K562
[10] = test system: SNB-19
[11] = test system: HT-29
[12] = test system: BT-549
[13] = test system: A549
[14] = test system: OVCAR-5
[15] = test system: SK-MEL-2
[16] = test system: NCI-H460
[17] = test system: SW-620
[18] = test system: MDA-MB-435
[19] = test system: SF-539
[20] = test system: COLO 205
[21] = test system: HCT-15
[22] = test system: M14
[23] = test system: ACHN
[24] = test system: IGROV-1
[25] = test system: PC-3
[26] = test system: UACC-257
[27] = test system: TK-10
[28] = test system: KM12
[29] = test system: RXF 393
[30] = test system: SK-MEL-5
[31] = test system: T47D
[32] = test system: Hs-578T
[33] = test system: MDA-MB-231
[34] = test system: LOX IMVI
[35] = test system: NCI/ADR-RES
[36] = test system: OVCAR-8
[37] = test system: CCRF-CEM
[38] = test system: NCI-H522
[39] = test system: EKVX
[40] = test system: HOP-62
[41] = test system: SK-MEL-28
[42] = test system: HCT-116
[43] = test system: CAKI-1
[44] = test system: MCF7
[45] = test system: U-251
[46] = test system: SN12C
[47] = test system: RPMI-8226
[48] = test system: OVCAR-4
[49] = test system: SNB-75
[50] = test system: MOLT-4
[51] = test system: A498
[52] = test system: Malme-3M
[53] = test system: 786-0
[54] = test system: SF-268
[55] = test system: HCC 2998
[56] = test system: SR
[57] = test system: HL-60
[58] = test system: SF-295

In the case of `COC(=O)C(NC(=O)C(CC(=O)OC(C)(C)C)NC(=O)OC(C)(C)C)C(O)c1ccccc1` (configuration not stated), the GI50 [1] is reported as > 100 µM (inactive), the GI50 [2] is reported as > 100 µM (inactive) and the GI50 [3] is reported as 3.92 µM (inactive). For the same compound, the GI50 [4] was > 100 µM (inactive), the GI50 [5] was > 100 µM (inactive) and the GI50 [6] was 16.1 µM (inactive). The GI50 [7] was > 100 µM (inactive), the GI50 [8] was > 100 µM (inactive) and the GI50 [9] was > 100 µM (inactive). For the same compound, the GI50 [10] was > 100 µM (inactive), the GI50 [11] was > 100 µM (inactive) and the GI50 [12] was > 100 µM (inactive). The GI50 [13] was > 100 µM (inactive), the GI50 [14] was > 100 µM (inactive) and the GI50 [15] was > 100 µM (inactive). For the same compound, the GI50 [16] was > 100 µM (inactive), the GI50 [17] was > 100 µM (inactive) and the GI50 [18] was > 100 µM (inactive). For the same compound, the GI50 [19] was > 100 µM (inactive), the GI50 [20] was > 100 µM (inactive) and the GI50 [21] was over 100 µM. The GI50 [22] was > 100 µM (inactive), the GI50 [23] was > 100 µM (inactive) and the GI50 [24] was > 100 µM (inactive). The GI50 [25] was > 100 µM (inactive), the GI50 [26] was 74.5 µM (inactive) and the GI50 [27] was > 100 µM (inactive). The GI50 [28] was > 100 µM (inactive), the GI50 [29] was 97.5 µM (inactive) and the GI50 [30] was > 100 µM (inactive). For the same compound, the GI50 [31] was > 100 µM (inactive), the GI50 [32] was > 100 µM (inactive) and the GI50 [33] was > 100 µM (inactive). For the same compound, the GI50 [34] was > 100 µM (inactive), the GI50 [35] was > 100 µM (inactive) and the GI50 [36] was > 100 µM (inactive). For the same compound, the GI50 [37] was > 100 µM (inactive), the GI50 [38] was > 100 µM (inactive) and the GI50 [39] was > 100 µM (inactive). For the same compound, the GI50 [40] was > 100 µM (inactive), the GI50 [41] was > 100 µM (inactive) and the GI50 [42] was > 100 µM (inactive). The GI50 [43] was > 100 µM (inactive), the GI50 [44] was > 100 µM (inactive) and the GI50 [45] was > 100 µM (inactive). For the same compound, the GI50 [46] was > 100 µM (inactive), the GI50 [47] was > 100 µM (inactive) and the GI50 [48] was > 100 µM (inactive). For the same compound, the GI50 [49] was > 100 µM (inactive), the GI50 [50] was > 100 µM (inactive) and the GI50 [51] was > 100 µM (inactive). For the same compound, the GI50 [52] was > 100 µM (inactive), the GI50 [53] was > 100 µM (inactive) and the GI50 [54] was > 100 µM (inactive).

In the case of `CN(C)CCCNC(=O)N/N=C/c1ccc(O)cc1`, the GI50 [1] is reported as > 100 µM (inactive), the GI50 [2] is reported as > 100 µM (inactive) and the GI50 [3] is reported as > 100 µM (inactive). For the same compound, the GI50 [4] was > 100 µM (inactive), the GI50 [5] was > 100 µM (inactive) and the GI50 [55] was > 100 µM (inactive). For the same compound, the GI50 [6] was > 100 µM (inactive), the GI50 [56] was > 100 µM (inactive) and the GI50 [7] was > 100 µM (inactive). The GI50 [8] was > 100 µM (inactive), the GI50 [9] was > 100 µM (inactive) and the GI50 [10] was > 100 µM (inactive). The GI50 [11] was > 100 µM (inactive), the GI50 [12] was > 100 µM (inactive) and the GI50 [13] was > 100 µM (inactive). For the same compound, the GI50 [14] was > 100 µM (inactive), the GI50 [57] was > 100 µM (inactive) and the GI50 [15] was > 100 µM (inactive). The GI50 [16] was > 100 µM (inactive), the GI50 [17] was > 100 µM (inactive) and the GI50 [18] was > 100 µM (inactive). The GI50 [19] was > 100 µM (inactive), the GI50 [20] was > 100 µM (inactive) and the GI50 [21] was over 100 µM. The GI50 [22] was > 100 µM (inactive), the GI50 [23] was > 100 µM (inactive) and the GI50 [24] was > 100 µM (inactive). For the same compound, the GI50 [25] was > 100 µM (inactive), the GI50 [26] was > 100 µM (inactive) and the GI50 [27] was > 100 µM (inactive). The GI50 [28] was > 100 µM (inactive), the GI50 [30] was > 100 µM (inactive) and the GI50 [31] was > 100 µM (inactive). For the same compound, the GI50 [32] was > 100 µM (inactive), the GI50 [58] was > 100 µM (inactive) and the GI50 [33] was > 100 µM (inactive). The GI50 [35] was > 100 µM (inactive), the GI50 [36] was > 100 µM (inactive) and the GI50 [37] was > 100 µM (inactive). For the same compound, the GI50 [38] was > 100 µM (inactive), the GI50 [40] was > 100 µM (inactive) and the GI50 [41] was > 100 µM (inactive). The GI50 [42] was > 100 µM (inactive), the GI50 [43] was > 100 µM (inactive) and the GI50 [44] was > 100 µM (inactive). For the same compound, the GI50 [45] was > 100 µM (inactive), the GI50 [46] was > 100 µM (inactive) and the GI50 [49] was 59.2 µM (inactive). For the same compound, the GI50 [50] was > 100 µM (inactive), the GI50 [51] was > 100 µM (inactive) and the GI50 [52] was > 100 µM (inactive). The GI50 [53] was > 100 µM (inactive) and the GI50 [54] was > 100 µM (inactive).
